Measured values reported in patent publication US10030020B2, “Spirocycle compounds and methods of making and using same” (Abide Therapeutics, Inc., priority 2016, dated 2018).

Experiments:
MAGL [1] = target: T1, MAGL (Mus musculus (Mouse), UniProt O35678); test: In vitro competitive activity-based protein profiling (mouse brain membrane fraction or cell lysates), MAGL band; type: biochemical; conditions: mouse proteome; for inhibition at 1 µM: read-out: MAGL % Inh 1 μM (mouse); for IC50: competitive ABPP
T1 sequence (O35678 whole entry): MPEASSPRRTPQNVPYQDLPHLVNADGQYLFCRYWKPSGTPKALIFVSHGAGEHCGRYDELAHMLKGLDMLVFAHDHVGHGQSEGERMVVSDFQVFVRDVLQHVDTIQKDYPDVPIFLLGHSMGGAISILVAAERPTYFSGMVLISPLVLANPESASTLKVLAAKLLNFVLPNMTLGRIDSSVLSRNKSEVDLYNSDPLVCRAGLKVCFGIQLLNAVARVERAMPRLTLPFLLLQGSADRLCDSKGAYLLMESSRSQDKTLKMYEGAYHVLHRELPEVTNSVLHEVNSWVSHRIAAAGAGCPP
Protocol: In Vitro Competitive Activity-Based Protein Profiling.
Proteomes (mouse brain membrane fraction or cell lysates) (50 μL, 1.0 mg/mL total protein concentration) were preincubated with varying concentrations of inhibitors at 37° C. After 30 min, FP—Rh (1.0 μL, 50 μM in DMSO) was added and the mixture was incubated for another 30 min at 37° C. Reactions were quenched with SDS loading buffer (50 μL-4×) and run on SDS-PAGE.

ABHD6 [2] = target: T2, ABHD6 (Mus musculus (Mouse), UniProt Q8R2Y0); test: In vitro competitive activity-based protein profiling (mouse brain membrane fraction or cell lysates), ABHD6 band; type: biochemical; conditions: mouse proteome; for inhibition at 1 µM: read-out: ABHD6 % Inh 1 μM (mouse); for IC50: competitive ABPP
T2 sequence (Q8R2Y0 whole entry): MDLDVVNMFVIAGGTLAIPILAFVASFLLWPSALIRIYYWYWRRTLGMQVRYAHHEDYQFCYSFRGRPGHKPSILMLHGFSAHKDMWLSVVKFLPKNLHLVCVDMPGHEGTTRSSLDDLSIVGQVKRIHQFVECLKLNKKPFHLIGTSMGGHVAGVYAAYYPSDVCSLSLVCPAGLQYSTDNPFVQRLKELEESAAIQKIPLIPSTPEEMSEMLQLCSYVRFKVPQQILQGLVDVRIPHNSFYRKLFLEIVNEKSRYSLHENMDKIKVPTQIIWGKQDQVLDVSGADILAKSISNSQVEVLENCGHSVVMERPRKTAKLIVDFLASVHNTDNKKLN
How it was run: (§1)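 Mouse proteome samples (brain membrane fraction or cell lysate, 1.0 mg/mL protein) were pretreated with varying inhibitor concentrations and subsequently probed with fluorophosphonate-rhodamine, each step lasting 30 min at 37° C. Labelled proteins were separated by SDS-PAGE, and band fluorescence was imaged and quantified.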

ABHD6 [3] = target: T2, ABHD6; test: Mouse brain proteomes from inhibitor treated mice (oral gavage, sacrificed 4 h after administration, ABPP analysis), ABHD6; type: in vivo, mouse (C57Bl/6J); conditions: 5 mg/kg oral gavage
How it was run: (§2)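 Wild-type C57Bl/6J mice; p.o. gavage, vehicle e.g. PEG400/EtOH/PBS 7/2/1; 5 mg/kg. Brain harvested 4 h post-dose, proteome profiled by ABPP. Read-out: % inhibition.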

MAGL [4] = target: T1, MAGL; test: Mouse brain proteomes from inhibitor treated mice (oral gavage, sacrificed 4 h after administration, ABPP analysis); type: in vivo, mouse (C57Bl/6J); conditions: 5 mg/kg oral gavage
How it was run: as §2

FAAH [5] = target: T3, FAAH (Mus musculus (Mouse), UniProt O08914); test: In vitro competitive activity-based protein profiling (mouse brain membrane fraction or cell lysates), FAAH band; type: biochemical; conditions: mouse proteome; for inhibition at 1 µM: read-out: FAAH % Inh 1 μM (mouse); for IC50: competitive ABPP
T3 sequence (O08914 whole entry): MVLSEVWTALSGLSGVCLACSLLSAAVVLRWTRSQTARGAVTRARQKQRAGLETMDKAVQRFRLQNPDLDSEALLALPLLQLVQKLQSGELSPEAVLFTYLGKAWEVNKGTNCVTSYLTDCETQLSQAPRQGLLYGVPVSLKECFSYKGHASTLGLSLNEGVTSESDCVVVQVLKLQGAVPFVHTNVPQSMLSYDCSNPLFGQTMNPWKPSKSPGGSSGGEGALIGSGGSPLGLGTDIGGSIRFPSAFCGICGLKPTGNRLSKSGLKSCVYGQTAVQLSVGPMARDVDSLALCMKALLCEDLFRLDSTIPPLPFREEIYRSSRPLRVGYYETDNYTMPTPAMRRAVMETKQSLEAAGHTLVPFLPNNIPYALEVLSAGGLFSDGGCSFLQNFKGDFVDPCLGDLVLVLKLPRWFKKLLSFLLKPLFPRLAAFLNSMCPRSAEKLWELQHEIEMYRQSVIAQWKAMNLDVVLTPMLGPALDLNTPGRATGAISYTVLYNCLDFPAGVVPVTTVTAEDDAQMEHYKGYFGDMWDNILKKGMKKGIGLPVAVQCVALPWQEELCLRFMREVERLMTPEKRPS
How it was run: as §1

FAAH [6] = target: T3, FAAH; test: Mouse brain proteomes from inhibitor treated mice (oral gavage, sacrificed 4 h after administration, ABPP analysis), FAAH; type: in vivo, mouse (C57Bl/6J); conditions: 5 mg/kg oral gavage
How it was run: as §2

Compound | inhibition at 1 µM (MAGL [1]) [%] | IC50 (MAGL [1]) [nM] | inhibition at 1 µM (ABHD6 [2]) [%] | IC50 (ABHD6 [2]) [nM] | ABHD6 % Inh 5 mg/kg (mouse) (ABHD6 [3]) | MAGL % Inh 5 mg/kg (mouse) (MAGL [4]) | inhibition at 1 µM (FAAH [5]) [%] | IC50 (FAAH [5]) [nM] | FAAH % Inh 5 mg/kg (mouse) (FAAH [6])
CC(=O)NC1CCN(c2cc(C(F)(F)F)ccc2CN2CCCC23CCN(C(=O)OC(C(F)(F)F)C(F)(F)F)CC3)CC1 [Example 93, 1,1,1,3,3,3-Hexafluoropropan-2-yl 1-(2-(4-acetamidopiperidin-1-yl)-4-(trifluoromethyl)benzyl)-1,8-diazaspiro[4.5]decane-8-carboxylate] | > 75 | < 100 | < 25 | > 1000 | # (# is <25%) | ### (### is ≥75%) | < 25 | > 1000 | # (# is <25%)
CS(=O)(=O)NC1CCN(c2cc(C(F)(F)F)ccc2CN2CCCC23CCN(C(=O)OC(C(F)(F)F)C(F)(F)F)CC3)CC1 [Example 94, 1,1,1,3,3,3-Hexafluoropropan-2-yl 1-(2-(4-(methylsulfonamido)piperidin-1-yl)-4-(trifluoromethyl)benzyl)-1,8-diazaspiro[4.5]decane-8-carboxylate] | > 75 | < 100 | < 25 | > 1000 | # (# is <25%) | # (# is <25%) | < 25 | > 1000 | # (# is <25%)
O=C(OC(C(F)(F)F)C(F)(F)F)N1CCC2(CCCN2Cc2ccc(C(F)(F)F)cc2N2CCC2)CC1 [Example 96, 1,1,1,3,3,3-Hexafluoropropan-2-yl 1-(2-(azetidin-1-yl)-4-(trifluoromethyl)benzyl)-1,8-diazaspiro[4.5]decane-8-carboxylate] | > 75 | < 100 | < 25 | > 1000 | # (# is <25%) | ### (### is ≥75%) | < 25 | > 1000 | # (# is <25%)
O=C(OC(C(F)(F)F)C(F)(F)F)N1CCC2(CCCN2Cc2ccc(C(F)(F)F)cc2N2CC3COCC3C2)CC1 (stereo not drawn) [Example 97, 1,1,1,3,3,3-Hexafluoropropan-2-yl 1-(2-(tetrahydro-1H-furo[3,4-c]pyrrol-5(3H)-yl)-4-(trifluoromethyl)benzyl)-1,8-diazaspiro[4.5]decane-8-carboxylate] | > 75 | < 100 | < 25 | > 1000 | # (# is <25%) | ### (### is ≥75%) | < 25 | > 1000 | # (# is <25%)
CC(=O)N1CCN(c2cc(Cl)ccc2CN2CCCC23CCN(C(=O)OC(C(F)(F)F)C(F)(F)F)CC3)CC1 [Example 99, 1,1,1,3,3,3-Hexafluoropropan-2-yl 1-(2-(4-acetylpiperazin-1-yl)-4-chlorobenzyl)-1,8-diazaspiro[4.5]decane-8-carboxylate] | > 75 | < 100 | < 25 | > 1000 | # (# is <25%) | ### (### is ≥75%) | < 25 | > 1000 | # (# is <25%)
CS(=O)(=O)N1CCN(c2cc(Cl)ccc2CN2CCCC23CCN(C(=O)OC(C(F)(F)F)C(F)(F)F)CC3)CC1 [Example 100, 1,1,1,3,3,3-Hexafluoropropan-2-yl 1-(4-chloro-2-(4-(methylsulfonyl)piperazin-1-yl)benzyl)-1,8-diazaspiro[4.5]decane-8-carboxylate] | > 75 | < 100 | < 25 | > 1000 | # (# is <25%) | ### (### is ≥75%) | < 25 | > 1000 | # (# is <25%)
O=C(OC(C(F)(F)F)C(F)(F)F)N1CCC2(CCCN2Cc2ccc(Cl)cc2N2CCC(F)(F)CC2)CC1 [Example 101, 1,1,1,3,3,3-Hexafluoropropan-2-yl 1-(4-chloro-2-(4,4-difluoropiperidin-1-yl)benzyl)-1,8-diazaspiro[4.5]decane-8-carboxylate] | > 75 | < 100 | < 25 | > 1000 | # (# is <25%) | ### (### is ≥75%) | < 25 | > 1000 | # (# is <25%)
O=C(OC(C(F)(F)F)C(F)(F)F)N1CCC2(CCCN2Cc2ccc(Cl)cc2N2CCC(F)CC2)CC1 [Example 102, 1,1,1,3,3,3-Hexafluoropropan-2-yl 1-(4-chloro-2-(4-fluoropiperidin-1-yl)benzyl)-1,8-diazaspiro[4.5]decane-8-carboxylate] | > 75 | < 100 | < 25 | > 1000 | # (# is <25%) | ### (### is ≥75%) | < 25 | > 1000 | # (# is <25%)
CC(=O)NC1CCN(c2cc(Cl)ccc2CN2CCCC23CCN(C(=O)OC(C(F)(F)F)C(F)(F)F)CC3)CC1 [Example 104, 1,1,1,3,3,3-Hexafluoropropan-2-yl 1-(2-(4-acetamidopiperidin-1-yl)-4-chlorobenzyl)-1,8-diazaspiro[4.5]decane-8-carboxylate] | > 75 | < 100 | < 25 | > 1000 | # (# is <25%) | ## (## is equal to or greater than 25% but less than 75%) | 25 to 75 | > 1000 | # (# is <25%)
CS(=O)(=O)NC1CCN(c2cc(Cl)ccc2CN2CCCC23CCN(C(=O)OC(C(F)(F)F)C(F)(F)F)CC3)CC1 [Example 105, 1,1,1,3,3,3-Hexafluoropropan-2-yl 1-(4-chloro-2-(4-(methylsulfonamido)piperidin-1-yl)benzyl)-1,8-diazaspiro[4.5]decane-8-carboxylate] | > 75 | < 100 | < 25 | > 1000 | # (# is <25%) | # (# is <25%) | < 25 | > 1000 | # (# is <25%)
O=C(OC(C(F)(F)F)C(F)(F)F)N1CCC2(CCCN2Cc2ccc(Cl)cc2N2CCC2)CC1 [Example 107, 1,1,1,3,3,3-Hexafluoropropan-2-yl 1-(2-(azetidin-1-yl)-4-chlorobenzyl)-1,8-diazaspiro[4.5]decane-8-carboxylate] | > 75 | < 100 | < 25 | > 1000 | # (# is <25%) | ### (### is ≥75%) | < 25 | > 1000 | ## (## is equal to or greater than 25% but less than 75%)
O=C(OC(C(F)(F)F)C(F)(F)F)N1CCC2(CCCN2Cc2ccc(Cl)cc2N2CC3COCC3C2)CC1 (stereo not drawn) [Example 108, 1,1,1,3,3,3-Hexafluoropropan-2-yl 1-(4-chloro-2-(tetrahydro-1H-furo[3,4-c]pyrrol-5(3H)-yl)benzyl)-1,8-diazaspiro[4.5]decane-8-carboxylate] | > 75 | < 100 | < 25 | > 1000 | # (# is <25%) | ### (### is ≥75%) | < 25 | > 1000 | # (# is <25%)
Cc1cc(CN2CCCC23CCN(C(=O)OC(C(F)(F)F)C(F)(F)F)CC3)ccc1Cl [Example 124, 1,1,1,3,3,3-Hexafluoropropan-2-yl 1-(4-chloro-3-methylbenzyl)-1,8-diazaspiro[4.5]decane-8-carboxylate] | > 75 | < 100 | < 25 | > 1000 | # (# is <25%) | ### (### is ≥75%) | < 25 | > 1000 | # (# is <25%)
Cc1ccc(CN2CCCC23CCN(C(=O)OC(C(F)(F)F)C(F)(F)F)CC3)cc1Cl [Example 125, 1,1,1,3,3,3-Hexafluoropropan-2-yl 1-(3-chloro-4-methylbenzyl)-1,8-diazaspiro[4.5]decane-8-carboxylate] | > 75 | < 100 | < 25 | > 1000 | # (# is <25%) | ### (### is ≥75%) | < 25 | > 1000 | # (# is <25%)
